The source of these data is patent US20130225694A1, “COMPOSITIONS AND METHODS OF INHIBITING RETINAL DEGENERATION” (Oklahoma Medical Research Foundation, priority 2012, published 2013).

Assay [1] has as its target T1, RPE65 isomerohydrolase (Rattus norvegicus, UniProt O70276).
T1 construct: 50 μg microsomal proteins from the rat RPE were added into 200 μl of reaction buffer; from tissue; host or cells: rat eyecup/RPE microsomes
T1 sequence (O70276 1-533): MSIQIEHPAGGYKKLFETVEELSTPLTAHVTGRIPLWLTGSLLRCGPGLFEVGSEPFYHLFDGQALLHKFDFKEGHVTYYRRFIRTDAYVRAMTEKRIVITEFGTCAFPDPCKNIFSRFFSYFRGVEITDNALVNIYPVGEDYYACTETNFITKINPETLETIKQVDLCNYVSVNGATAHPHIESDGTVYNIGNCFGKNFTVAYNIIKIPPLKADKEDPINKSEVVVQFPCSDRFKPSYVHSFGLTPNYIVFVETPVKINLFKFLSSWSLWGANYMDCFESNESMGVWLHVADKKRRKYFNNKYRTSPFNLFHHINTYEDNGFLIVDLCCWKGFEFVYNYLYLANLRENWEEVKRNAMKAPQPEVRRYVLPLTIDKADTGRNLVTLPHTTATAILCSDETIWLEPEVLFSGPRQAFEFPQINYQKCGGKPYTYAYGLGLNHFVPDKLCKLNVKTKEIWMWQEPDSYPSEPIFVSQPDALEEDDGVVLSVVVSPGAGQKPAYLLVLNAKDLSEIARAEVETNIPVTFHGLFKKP
In words: Isomerohydrolase activity assay with rat RPE microsomes (Example 2). The assay is classed as biochemical. The method, then:
Isomerohydrolase activity assay and PBN inhibition—Rats were sacrificed, and eyes were enucleated and dissected to remove the anterior part including lens, vitreous, and retina. The remaining eyecups containing RPE were sonicated 3 times for 20 seconds in a cold 0.32 M sucrose/0.1 M sodium phosphate buffer (pH 7.4). The homogenate was centrifuged (20 minutes, 20,000 g) to sediment sclera, unbroken cells, nuclei and mitochondria. The obtained supernatant was recentrifuged (1 hour, 100,000 g), and the microsomal pellet was resuspended in 10 mM 1,3-bis[tris(hydroxymethyl)-methylamino]propane (BTP), (pH 8.0) and 100 mM NaCl, and stored at −80° C. All-trans-[11,12-^3H]-retinol (1 mCi/ml, 45.5 Ci/mmol, American Radiolabeled Chemical, Inc., St. Louis, Mo.) in N,N-dimethyl formamide was used as the substrate for the isomerohydrolase assay. […] The upper layer was collected, and the generated retinoids were analyzed by normal phase HPLC as described (38). […] The isomerohydrolase activity was calculated from the area of the 11-cis-retinol peak using Radiomatic 610TR software (Perkin Elmer, Boston, Mass.) with synthetic 11-cis-[^3H]-retinol as a standard. […] The inhibition constant for PBN was calculated from the following equation: […] where [I]=concentration of PBN, Vm^i=maximal velocity in the presence of Vm=maximal velocity in the absence of PBN. […]

Assay [2] has as its system rhodopsin. Nature of the assay: Rhodopsin regeneration after bleach in rats, IP nitrone. Type of assay: in vivo, rat. The protocol:
FIG. 10 graphically illustrates the effects of three PBN analogs of rhodopsin regeneration. Rhodopsin content was measured as nmole/retina following the procedure as in Mandal et al. (J Biol. Chem. 2011. 286 (37):32491-501). After injection with PBN derivatives or vehicles (saline), rats were left in room light for 2 hours (light adapted or LA) and then moved to dark. At 2.5 hours dark adaptation (DA), retinas were harvested. DA-Control, Dark adapted (12 h) control retina without any treatment to show normal rhodopsin content.
Measurement of rhodopsin regeneration—To measure the effect of PBN on the rate of rhodopsin regeneration, dark-adapted rats were injected intraperitoneally with PBN (50 mg/kg) or PBS 0.5 hour prior to a 2 hour bleach in room light (˜400 lux). Immediately following the bleach (time=0 minutes), a group of PBN- and vehicle-treated rats were killed, and retinas were removed and snap frozen. The remaining rats were dark-adapted, and retinas were collected under dim red light at 45, 90, and 180 minutes after the bleach.
Rhodopsin measurements were performed as described previously (2,36) with slight modification. Briefly, under dim red light, each retina was homogenized in 450 μl of buffer containing 10 mM Tris-HCl (pH 7.4), 150 mM NaCl, 1 mM EDTA, 2% (w/v) octylglucoside, and 50 mM hydroxylamine. Homogenates were centrifuged at 16,000 g, and soluble lysates were scanned from 270-800 nm in a spectrophotometer (Ultrospec 3000 UV/Vis Spectrophotometer, GE Healthcare, Piscataway, N.J.). Samples were then bleached under room light for 10 minutes and scanned again. The difference spectra at 500 nm between pre- and post-bleached samples were used to determine rhodopsin content using a molar extinction coefficient of […] (37). The values were normalized to the total lysate volume, and data are presented as rhodopsin content/retina.

Take `CC(C)(C)/[N+]([O-])=C/c1ccccc1` [Compound 1, α-phenyl-N-tert-butyl nitrone]: the “inhibition of 11-cis-retinol generation” value in assay [1] (1 mM PBN) is reported as “almost complete inhibition”. The IC50 in assay [1] (rat RPE microsomes, 0.2 μM all-trans-[3H]-retinol, 1 h 37° C., read-out: apparent IC50 of isomerohydrolase activity) stood at 100 µM. For the same molecule, the “effect on rhodopsin regeneration” value in assay [2] (50 mg/kg IP, 2.5 hours in the dark (FIG. 10)) is “blocked rhodopsin regeneration significantly”. Also, in assay [2] (50 mg/kg IP, 45 minutes in darkness after 2 h bleach), the “rhodopsin regenerated after bleach” value was “virtually no rhodopsin was regenerated”. Also, the bleachable rhodopsin recovered in assay [2] (50 mg/kg IP, dark adaptation for 3 hours after 2 h bleach) is reported as around 30%. Further, in assay [2] (Rattus norvegicus, rats, 50 mg/kg IP, 2 h room light then 2.5 h dark adaptation), the inhibition at 50 mg/kg is 83%. Also, in assay [2] (fully dark-adapted rats, mean±SEM), the “rhodopsin content of rats maintained in darkness” value is reported as 1.38±0.14 nmol/eye.

As usually defined, the IC50 is the concentration needed to halve the response being measured. A word on the inhibition: it is the relative decrease from the control value, in per cent. Read a low inhibition as a response near the control.
